According to ChEMBL document CHEMBL1641592, “Benzopyrazine derivatives: A novel class of growth factor receptor bound protein 7 antagonists” (Bioorg Med Chem, 2011):

What was measured:
[1] = biological target: Growth factor receptor-bound protein 7 (Homo sapiens) (UniProt Q14451)
Description: Binding affinity to human GRB7 SH2-apo domain expressed in Escherichia coli BL21 (DE3) assessed as change in melting temperature at 100 uM by thermofluor based melting point shift assay

[2] = biological target: Growth factor receptor-bound protein 7 (Homo sapiens) (UniProt Q14451); remark: listed apart in the source
Description: Binding affinity to human GRB7 SH2-apo domain expressed in Escherichia coli BL21 (DE3) assessed as change in melting temperature at 200 uM by thermofluor based melting point shift assay

MDA-MB-468 = assay: Cytotoxicity against human MDA-MB-468 cells after 4 days by SRB assay; conditions: MDA-MB-468, 96 h

Sequence of Growth factor receptor-bound protein 7 (Homo sapiens) (Q14451 whole entry): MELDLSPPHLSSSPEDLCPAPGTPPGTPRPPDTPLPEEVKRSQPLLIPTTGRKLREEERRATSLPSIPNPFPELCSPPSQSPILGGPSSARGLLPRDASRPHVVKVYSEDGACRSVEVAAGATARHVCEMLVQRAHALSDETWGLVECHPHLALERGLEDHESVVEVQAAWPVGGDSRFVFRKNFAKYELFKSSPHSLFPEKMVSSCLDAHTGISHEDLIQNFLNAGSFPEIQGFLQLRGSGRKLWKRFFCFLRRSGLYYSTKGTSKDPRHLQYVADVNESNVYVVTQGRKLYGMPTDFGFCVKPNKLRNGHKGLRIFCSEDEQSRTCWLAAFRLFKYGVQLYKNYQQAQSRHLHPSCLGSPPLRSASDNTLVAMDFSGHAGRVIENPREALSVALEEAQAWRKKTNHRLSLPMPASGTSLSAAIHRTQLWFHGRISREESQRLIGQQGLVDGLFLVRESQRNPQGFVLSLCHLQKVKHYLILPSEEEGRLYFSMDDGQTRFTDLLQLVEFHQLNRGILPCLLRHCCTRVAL

Structure (SMILES)	ΔTm [1] [°C]	ΔTm [2] [°C]	IC50 (MDA-MB-468) [µM]
COC(=O)C(=O)C(C(=O)C(=O)Nc1cc(C)ccc1C)c1nc2ccccc2nc1O (stereo not drawn)	0.9	0.6	
COC(=O)C(=O)C(C(=O)C(=O)Nc1ccc(C(N)=O)cc1)c1nc2ccc([N+](=O)[O-])cc2nc1O (stereo not drawn)	0.45	0.85	
COC(=O)C(=O)C(C(=O)C(=O)Nc1cccc(C(C)=O)c1)c1nc2ccc([N+](=O)[O-])cc2nc1O (stereo not drawn)	0.45	0.55	
C[C@@H](O)[C@@H]1NC(=O)[C@H](CC(N)=O)NC(=O)[C@H](CC(=O)O)NC(=O)[C@H](Cc2ccc(O)cc2)NC(=O)CNC(=O)[C@@H](CCC(=O)O)NC(=O)[C@H](Cc2ccccc2)NC(=O)[C@H](Cc2c[nH]c3ccccc23)NC(=O)CSC[C@@H](C(=O)O)NC(=O)[C@@H]2CCCN2C(=O)[C@H](Cc2ccccc2)NC1=O	1.35	1.85	
COC(=O)C(=O)C(C(=O)C(=O)Nc1ccccc1C(N)=O)c1nc2ccc(C(=O)c3ccccc3)cc2nc1O (stereo not drawn)			86
COC(=O)C(=O)C(C(=O)C(=O)Nc1ccccc1C(C)=O)c1nc2ccc(C(=O)c3ccccc3)cc2nc1O (stereo not drawn)	0.05	0.55	
COC(=O)C(=O)C(C(=O)C(=O)Nc1cc([N+](=O)[O-])ccc1C#N)c1nc2ccccc2nc1O (stereo not drawn)	1.2	0.95	
